Results on three compounds are retold here after paper PMC7070908, “Structure-Guided Identification of Black Cohosh (Actaea racemosa) Triterpenoids with In Vitro Activity against Multiple Myeloma” (Molecules, 2020).

For data set [1], the system named is NCI-H929 myeloma cell line. The data set can be described thus: Cytotoxicity, flow cytometry (AnnexinV/propidium iodide negativity), NCI-H929. Format: cell-based, human. How it is done: (§1) Induction of apoptosis was measured in myeloma cell lines NCI-H929, OPM-2, and U266 as well as in peripheral blood mononuclear cells (PBMCs) of healthy donors by flow cytometry using established protocols thereby staining the cells with AnnexinV-fluorescein isothiocyanate and propidium iodide. Bortezomib (Eubio, Vienna, Austria) was used as positive control. Cell lines were purchased from DSMZ (Braunschweig, Germany) and routinely fingerprinted and tested for mycoplasma negativity. All cells (cell lines and PBMC) were grown in RPMI-1640 medium (Life Technologies, Paisley, UK) supplemented with 10% fetal calf serum (FCS; PAA, Linz, Austria), L-glutamine 100 µg/mL, and penicillin-streptomycin 100 U/mL. PBMCs from healthy donors were used after obtaining written informed consent at the University Hospital Salzburg (ethics committee approval 415-E/1287/6-2011). Cells were subjected to Ficoll separation (Ficoll PaqueTM) and incubated in RPMI-1640 Media with supplements as above. In brief, 0.5 × 10^6 myeloma cells/mL or similar numbers of PMBCs were incubated for 24 h and 48 h with or without the tested compounds dissolved in dimethyl sulfoxide at different concentrations. At least three analyses in triplicates were performed for each cell line and a solvent control was always included. As a positive control, the proteasome inhibitor bortezomib (BTZ) was used at concentrations of 10 and 5 nM. The extent of non-apoptotic cells (AnnexinV/propidium iodide negativity) was calculated as percentage of viable cells in respect to the untreated control. Data are shown as mean percentage of viable cells and standard error of the mean (SEM) (error bars).
Background: A flow cytometer gives signals particle by particle.

The test system of a further data set is OPM-2 myeloma cell line. The data set can be described thus: Cytotoxicity, flow cytometry (AnnexinV/propidium iodide negativity), OPM-2. It is filed as cell-based, human. How it is done:
as §1

For a further data set, the system named is U266 myeloma cell line. Put plainly: Cytotoxicity, flow cytometry (AnnexinV/propidium iodide negativity), U266. It is filed as cell-based, human. How it is done: as §1
Data set [2] relates to peripheral blood mononuclear cells (PBMCs) of healthy donors. The data set can be described thus: Cytotoxicity, flow cytometry (AnnexinV/propidium iodide negativity), PBMC of healthy donors. It is filed as cell-based, human. The method, then:
as §1

A further data set deals with MCF7 breast cancer cells. More on the design: method as in PMID 14758092. As to conditions: incubation times of 96 h; cited from earlier work.
For data set [3], the system named is human squamous cell carcinoma (HSC-2) cells. More on the design: method as in PMID 11824572. As to conditions: cited from earlier work.
In data set [4] the test system is normal human gingival fibroblasts (HGF). On the set-up: method as in PMID 11824572. Conditions: cited from earlier work.
The next data set relates to MCF7 cells. On the set-up: method as in PMID 20564500. Conditions: 48 h of incubation; cited from earlier work.
Data set [5] has as its system doxorubicin-resistant-MCF7 (R-MCF7) cells. On the set-up: method as in PMID 20564500. As to conditions: doxorubicin-resistant MCF7, 48 h of incubation; cited from earlier work.
The test system of the next data set is GABA(A)-receptors. More on the design: method as in PMID 21082802. Conditions: cited from earlier work.
Where [6] appears, read: 25 µM, 24 h, % of untreated control, mean ± SEM (Table 1).
Where [7] appears, read: 25 µM, 48 h, % of untreated control, mean ± SEM (Table 2).
[8] abbreviates: 50 µM, 24 h, % of untreated control, mean ± SEM (Table 1).
Where [9] appears, read: 50 µM, 48 h, % of untreated control, mean ± SEM (Table 2).
Where [10] appears, read: 12.5 µM, 24 h, second round (Table 3).
[11] abbreviates: 25 µM, 24 h, second round (Table 3).
The mark [12] stands for this setting: 37.5 µM, 24 h, second round (Table 3).

In brackets after ≈: the same amount, converted by molar mass. Some results are limits rather than exact numbers.

For `CC(=O)O[C@@H]1C[C@@]23C[C@@]24CC[C@H](O[C@@H]2OC[C@@H](O)[C@H](O)[C@H]2O)C(C)(C)[C@@H]4CC[C@H]3[C@]2(C)C[C@@H]3O[C@]4(C[C@@H](C)[C@@H]3[C@@]12C)O[C@H](O)[C@@]1(C)O[C@@H]41` [Compound 1, actein], the “MM Cells % Alive NCI-H929” value in data set [1] (setting [6]) is recorded as 80.5 ± 5.9%; in [1] (setting [7]) it was 70.2 ± 4.3%; in [1] (setting [8]), 48.2 ± 10.9%; in [1] (setting [9]), 13.2 ± 2.4%. For the same compound, the “MM Cells % Alive OPM-2” value in the data set on OPM-2 myeloma cell line (setting [6]) amounted to 93.2 ± 3.7%; in the data set on OPM-2 myeloma cell line (setting [7]), 93.1 ± 2.4%; in the data set with OPM-2 myeloma cell line (setting [8]), 81.1 ± 4.7%; with OPM-2 myeloma cell line (setting [9]), 67.3 ± 6.7%. In addition, the “MM Cells % Alive U266” value in the data set on U266 myeloma cell line (setting [6]) is 90.2 ± 4.1%; with U266 myeloma cell line (setting [7]) it was 81.0 ± 5.9%; with U266 myeloma cell line (setting [8]), 75.1 ± 6.4%; with U266 myeloma cell line (setting [9]) it was 35.5 ± 6.7%. The “PBMC % Alive” value in data set [2] (setting [6]) came to 96.4 ± 0.1%; in [2] (setting [7]) it was 94.6 ± 0.2%; in [2] (setting [8]) it was 85.6 ± 1.2%; in data set [2] (setting [9]), 74.9 ± 1.2%. Moreover, the “IC50 growth inhibition of MCF7 breast cancer cells” value in the data set on MCF7 breast cancer cells is on record as 14 µg/mL.
`COC(C)(C)C1OC23OC1CC(C)C2C1(C)CCC24CC25CCC(OC2OCC(O)C(O)C2O)C(C)(C)C5CCC4C1(C)C3O` [Compound 7, 25-O-methylcimigenol-3-O-α-L-arabinopyranoside]: the results for the “MM Cells % Alive NCI-H929” value in data set [1] (setting [10]), in data set [1] (setting [11]) and in data set [1] (setting [12]) were 95.5 ± 1.8%, 34.3 ± 8.0% and 2.5 ± 1.3%, respectively. In addition, the half-maximal inhibitory concentration (IC50) stood at 14.7 µg/mL (≈ 23.2 µM) in data set [1] (Homo sapiens, NCI-H929, 24 h, incubation for 24 h); 21.2 µg/mL (≈ 33.4 µM) in the data set with OPM-2 myeloma cell line (Homo sapiens, OPM-2, 24 h, incubation for 24 h); 16.2 µg/mL (≈ 25.5 µM) in the data set with U266 myeloma cell line (Homo sapiens, U-266, 24 h, incubation for 24 h); 19.9 µg/mL (≈ 31.3 µM) in [2] (Homo sapiens, PBMC, 24 h, incubation for 24 h). For the same compound, the results for the “MM Cells % Alive OPM-2” value in the data set on OPM-2 myeloma cell line (setting [10]), in the data set with OPM-2 myeloma cell line (setting [11]) and in the data set on OPM-2 myeloma cell line (setting [12]) were 99.8 ± 1.7%, 88.0 ± 4.5% and 31.3 ± 8.6%, respectively. Further, the “MM Cells % Alive U266” value is reported as 97.0 ± 3.5% in the data set with U266 myeloma cell line (setting [10]), 51.3 ± 11.8% with U266 myeloma cell line (setting [11]) and 5.3 ± 2.8% in the data set on U266 myeloma cell line (setting [12]). Moreover, in the data set with U266 myeloma cell line (incubation for 24 h), the “IC50 U266” value was determined as 16.1 µg/mL (≈ 25.4 µM). Further, the figures for the “PBMC % Alive” value in data set [2] (setting [10]), in data set [2] (setting [11]) and in [2] (setting [12]) were 105.3 ± 0.6%, 81.0 ± 8.5% and 25.0 ± 6.3%, respectively. In addition, the “cytotoxic effects against HSC-2 cells (in words)” value in [3] is “moderate effects”. For the same compound, the “cytotoxic effects against HGF (in words)” value in [4] was “moderate effects”.
In the case of `CC(=O)OC(CC(C)C1C(=O)C(O)C2(C)C3CCC4C(C)(C)C(OC5OCC(O)C(O)C5O)CCC45CC35CCC12C)C1OC1(C)C` [Compound 2, 23-O-acetylshengmanol-3-O-β-D-xylopyranoside], the “MM Cells % Alive NCI-H929” value in data set [1] (setting [6]) is 87.7 ± 4.9%; in [1] (setting [7]), 63.9 ± 10.6%; in data set [1] (setting [8]), 27.9 ± 12.2%; in [1] (setting [9]) it was 17.4 ± 7.3%. The “MM Cells % Alive OPM-2” value in the data set with OPM-2 myeloma cell line (setting [6]) was found to be 86.2 ± 8.6%; with OPM-2 myeloma cell line (setting [7]), 84.6 ± 1.0%; in the data set with OPM-2 myeloma cell line (setting [8]) it was 71.0 ± 11.2%; in the data set on OPM-2 myeloma cell line (setting [9]), 51.7 ± 8.9%. Besides, the “MM Cells % Alive U266” value in the data set with U266 myeloma cell line (setting [6]) came out at 79.4 ± 20.2%; in the data set on U266 myeloma cell line (setting [7]) it was 90.2 ± 1.7%; in the data set on U266 myeloma cell line (setting [8]) it was 56.3 ± 21.4%; in the data set with U266 myeloma cell line (setting [9]) it was 62.1 ± 0.4%. Further, the “PBMC % Alive” value in data set [2] (setting [6]) came out at 94.7 ± 1.8%; in data set [2] (setting [7]) it was 92.7 ± 1.7%; in [2] (setting [8]), 84.0 ± 3.0%; in [2] (setting [9]), 76.1 ± 2.1%. The “IC50 MCF7” value in the data set on MCF7 cells is listed as 39 µg/mL (≈ 58.8 µM). The “IC50 R-MCF7” value in [5] is 60 µg/mL (≈ 90.5 µM). Further, the “effect on GABA(A)-receptors, factor by which it exceeds actein (1) and compound 3” value in the data set on GABA(A)-receptors is recorded as above 5.

A word on the IC50: it is the concentration that inhibits the measured activity by half.
